# Assays:
# MDA-MB-231 [1] = assay: Antiproliferative activity against human MDA-MB-231 cells reduction in cell viability measured after 48 hrs by MTT assay; type: functional, cell-based; details: MDA-MB-231, 48 h
# MDA-MB-231 [2] = assay: Induction of apoptosis in human MDA-MB-231 cells assessed as late apoptotic cells at 15 uM measured after 48 hrs by annexinV-FITC/propidium iodide staining based flow cytometry (reference value: 0 %); type: functional
# [3] = target: GTPase KRas (Homo sapiens) (UniProt P01116); assay: Inhibition of KRAS in human MDA-MB-231 cells assessed as reduction in Pan RAS protein level at 25 uM measured after 24 hrs by Western blot analysis relative to control; type: cell-based
# MDA-MB-231 [4] = assay: Induction of apoptosis in human MDA-MB-231 cells assessed as late apoptotic cells at 25 uM measured after 48 hrs by annexinV-FITC/propidium iodide staining based flow cytometry (reference value: 0 %); type: functional
# [5] = target: GTPase KRas (Homo sapiens) (UniProt P01116); assay: Inhibition of KRAS in human MDA-MB-231 cells assessed as reduction in phosphorylated MEK1/2 at Ser217/221 residues protein level at 35 uM measured after 24 hrs by Western blot analysis relative to control; type: cell-based
# [6] = target: GTPase KRas (Homo sapiens) (UniProt P01116); assay: Inhibition of KRAS in human MCF7 cells assessed as reduction in phosphorylated MEK1/2 at Ser217/221 residues protein level at 35 uM measured after 24 hrs by Western blot analysis relative to control; type: cell-based
# [7] = target: GTPase KRas (Homo sapiens) (UniProt P01116); assay: Inhibition of KRAS in human MCF7 cells assessed as reduction in MEK1/2 9G3 protein level at 15 uM measured after 24 hrs by Western blot analysis relative to control; type: cell-based
# MDA-MB-231 [8] = assay: Induction of apoptosis in human MDA-MB-231 cells assessed as live cells at 25 uM measured after 48 hrs by annexinV-FITC/propidium iodide staining based flow cytometry (reference value: 99 %); type: functional
# [9] = target: GTPase KRas (Homo sapiens) (UniProt P01116); assay: Inhibition of KRAS in human MCF7 cells assessed as reduction in phosphorylated RAF-1 E1 protein level at 15 uM measured after 24 hrs by Western blot analysis relative to control; type: cell-based
# [10] = target: GTPase KRas (Homo sapiens) (UniProt P01116); assay: Inhibition of KRAS in human MDA-MB-231 cells assessed as reduction in phosphorylation of MEK measured after 24 hrs by Western blot analysis; type: cell-based
# [11] = target: GTPase KRas (Homo sapiens) (UniProt P01116); assay: Inhibition of KRAS in human MDA-MB-231 cells assessed as reduction in MEK1/2 9G3 protein level at 35 uM measured after 24 hrs by Western blot analysis relative to control; type: cell-based
# MCF7 [12] = assay: Antiproliferative activity against human MCF7 cells reduction in cell viability measured after 48 hrs by MTT assay; type: functional, cell-based
# [13] = target: GTPase KRas (Homo sapiens) (UniProt P01116); assay: Inhibition of KRAS in human MCF7 cells assessed as reduction in MEK1/2 9G3 protein level at 25 uM measured after 24 hrs by Western blot analysis relative to control; type: cell-based
# MDA-MB-231 [14] = assay: Cell cycle arrest in human MDA-MB-231 cells assessed as accumulation at G1 phase at 15 uM measured after 48 hrs by propidium iodide/RNase staining based flow cytometry (reference value: 74.56 %); type: functional
# [15] = target: GTPase KRas (Homo sapiens) (UniProt P01116); assay: Inhibition of KRAS in human MDA-MB-231 cells assessed as reduction in ERK1/2 137F5 protein level at 15 uM measured after 24 hrs by Western blot analysis relative to control; type: cell-based
# [16] = target: GTPase KRas (Homo sapiens) (UniProt P01116); assay: Inhibition of KRAS in human MDA-MB-231 cells assessed as reduction in phosphorylated RAF-1 E1 protein level at 25 uM measured after 24 hrs by Western blot analysis relative to control; type: cell-based
# MDA-MB-231 [17] = assay: Induction of apoptosis in human MDA-MB-231 cells assessed as early apoptotic cells at 15 uM measured after 48 hrs by annexinV-FITC/propidium iodide staining based flow cytometry (reference value: 0.69 %); type: functional
# [18] = target: GTPase KRas (Homo sapiens) (UniProt P01116); assay: Inhibition of KRAS in human MCF7 cells assessed as reduction in phosphorylated ERK1/2 at Thr185/Tyr187 residues protein level at 25 uM measured after 24 hrs by Western blot analysis relative to control; type: cell-based
# MCF7 [19] = assay: Induction of apoptosis in human MCF7 cells assessed as live cells at 25 uM measured after 48 hrs by annexinV-FITC/propidium iodide staining based flow cytometry (reference value: 99.71 %); type: functional
# [20] = target: GTPase KRas (Homo sapiens) (UniProt P01116); assay: Inhibition of KRAS in human MCF7 cells assessed as reduction in phosphorylated MEK1/2 at Ser217/221 residues protein level at 15 uM measured after 24 hrs by Western blot analysis relative to control; type: cell-based
# [21] = target: GTPase KRas (Homo sapiens) (UniProt P01116); assay: Inhibition of KRAS in human MDA-MB-231 cells assessed as reduction in phosphorylated ERK1/2 at Thr185/Tyr187 residues protein level at 35 uM measured after 24 hrs by Western blot analysis relative to control; type: cell-based
# [22] = target: GTPase KRas (Homo sapiens) (UniProt P01116); assay: Inhibition of KRAS in human MDA-MB-231 cells assessed as reduction in MEK1/2 9G3 protein level at 25 uM measured after 24 hrs by Western blot analysis relative to control; type: cell-based
# [23] = target: GTPase KRas (Homo sapiens) (UniProt P01116); assay: Inhibition of KRAS in human MDA-MB-231 cells assessed as reduction in ERK1/2 137F5 protein level at 25 uM measured after 24 hrs by Western blot analysis relative to control; type: cell-based
# [24] = target: GTPase KRas (Homo sapiens) (UniProt P01116); assay: Inhibition of KRAS in human MCF7 cells assessed as reduction in ERK1/2 137F5 protein level at 15 uM measured after 24 hrs by Western blot analysis relative to control; type: cell-based
# MDA-MB-231 [25] = assay: Cell cycle arrest in human MDA-MB-231 cells assessed as accumulation at S phase at 25 uM measured after 48 hrs by propidium iodide/RNase staining based flow cytometry (reference value: 22.09 %); type: functional
# MCF7 [26] = assay: Induction of apoptosis in human MCF7 cells assessed as late apoptotic cells at 15 uM measured after 48 hrs by annexinV-FITC/propidium iodide staining based flow cytometry (reference value: 0.17 %); type: functional
# MDA-MB-231 [27] = assay: Induction of apoptosis in human MDA-MB-231 cells assessed as necrotic cells at 15 uM measured after 48 hrs by annexinV-FITC/propidium iodide staining based flow cytometry (reference value: 0.31 %); type: functional
# [28] = target: GTPase KRas (Homo sapiens) (UniProt P01116); assay: Inhibition of KRAS in human MCF7 cells assessed as reduction in ERK1/2 137F5 protein level at 35 uM measured after 24 hrs by Western blot analysis relative to control; type: cell-based
# MDA-MB-231 [29] = assay: Induction of apoptosis in human MDA-MB-231 cells assessed as necrotic cells at 25 uM measured after 48 hrs by annexinV-FITC/propidium iodide staining based flow cytometry (reference value: 0.31 %); type: functional
# MCF7 [30] = assay: Induction of apoptosis in human MCF7 cells assessed as late apoptotic cells at 25 uM measured after 48 hrs by annexinV-FITC/propidium iodide staining based flow cytometry (reference value: 0.17 %); type: functional
# [31] = target: GTPase KRas (Homo sapiens) (UniProt P01116); assay: Inhibition of KRAS in human MCF7 cells assessed as reduction in ERK1/2 137F5 protein level at 25 uM measured after 24 hrs by Western blot analysis relative to control; type: cell-based
# MDA-MB-231 [32] = assay: Cell cycle arrest in human MDA-MB-231 cells assessed as accumulation at G2 phase at 15 uM measured after 48 hrs by propidium iodide/RNase staining based flow cytometry (reference value: 3.35 %); type: functional
# [33] = target: GTPase KRas (Homo sapiens) (UniProt P01116); assay: Inhibition of KRAS in human MDA-MB-231 cells assessed as reduction in phosphorylated RAF-1 E1 protein level at 35 uM measured after 24 hrs by Western blot analysis relative to control; type: cell-based
smiles,measurement,setting,value
O=P(Oc1ccccc1)(Oc1ccccc1)OC1C2OC3(c4ccccc4)OC(C2O)C(O)C1O3 (centres undefined),IC50,MDA-MB-231 [1],22.4 µM
same,Activity,MDA-MB-231 [2],0.39%
same,fold change (FC),[3],1.18
same,Activity,MDA-MB-231 [4],0.64%
same,fold change (FC),[5],0.53
same,fold change (FC),[6],0.86
same,fold change (FC),[7],0.97
same,Activity,MDA-MB-231 [8],62.65%
same,fold change (FC),[9],1.06
same,inhibition,[10],Dose-dependent effect
same,fold change (FC),[11],0.46
same,Activity,MCF7 [12],Dose-dependent effect
same,IC50,"MCF7 [12]; MCF7, 48 h",35.1 µM
same,fold change (FC),[13],1.06
same,Activity,MDA-MB-231 [14],34.45%
same,fold change (FC),[15],0.99
same,fold change (FC),[16],0.14
same,Activity,MDA-MB-231 [17],0.39%
same,fold change (FC),[18],0.91
same,Activity,MCF7 [19],36.83%
same,fold change (FC),[20],0.91
same,fold change (FC),[21],0.42
same,fold change (FC),[22],0.61
same,fold change (FC),[23],0.91
same,fold change (FC),[24],1.25
same,Activity,MDA-MB-231 [25],40.07%
same,Activity,MCF7 [26],0.28%
same,Activity,MDA-MB-231 [27],7.3%
same,fold change (FC),[28],1.11
same,Activity,MDA-MB-231 [29],16.64%
same,Activity,MCF7 [30],0.49%
same,fold change (FC),[31],1.14
same,Activity,MDA-MB-231 [32],21.02%
same,fold change (FC),[33],0.17
